Measurements: patent US6855730B2, “3-methylidenyl-2-indolinone modulators of protein kinase” (Sugen, Inc., priority 1998, dated 2005)

Biological target: EGFR (Homo sapiens, UniProt P00533)
Experiment: Biochemical EGFR assay (ELISA, A431 cell lysate)
Set-up: A431 cell lysate (Screening Lab, SUGEN, Inc.); host or cells: A431
Details: read-out: bio EGFr IC50
Procedure, shortened: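 EGFR captured from A431 cell lysate onto anti-EGFR-coated plates, then incubated with test compound for 30 min at room temperature. Tyrosine phosphorylation with ATP/MnCl2 was stopped with EDTA after 5 min and detected by anti-phosphotyrosine ELISA with peroxidase/ABTS read-out.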

Chain of EGFR (P00533 25-1210): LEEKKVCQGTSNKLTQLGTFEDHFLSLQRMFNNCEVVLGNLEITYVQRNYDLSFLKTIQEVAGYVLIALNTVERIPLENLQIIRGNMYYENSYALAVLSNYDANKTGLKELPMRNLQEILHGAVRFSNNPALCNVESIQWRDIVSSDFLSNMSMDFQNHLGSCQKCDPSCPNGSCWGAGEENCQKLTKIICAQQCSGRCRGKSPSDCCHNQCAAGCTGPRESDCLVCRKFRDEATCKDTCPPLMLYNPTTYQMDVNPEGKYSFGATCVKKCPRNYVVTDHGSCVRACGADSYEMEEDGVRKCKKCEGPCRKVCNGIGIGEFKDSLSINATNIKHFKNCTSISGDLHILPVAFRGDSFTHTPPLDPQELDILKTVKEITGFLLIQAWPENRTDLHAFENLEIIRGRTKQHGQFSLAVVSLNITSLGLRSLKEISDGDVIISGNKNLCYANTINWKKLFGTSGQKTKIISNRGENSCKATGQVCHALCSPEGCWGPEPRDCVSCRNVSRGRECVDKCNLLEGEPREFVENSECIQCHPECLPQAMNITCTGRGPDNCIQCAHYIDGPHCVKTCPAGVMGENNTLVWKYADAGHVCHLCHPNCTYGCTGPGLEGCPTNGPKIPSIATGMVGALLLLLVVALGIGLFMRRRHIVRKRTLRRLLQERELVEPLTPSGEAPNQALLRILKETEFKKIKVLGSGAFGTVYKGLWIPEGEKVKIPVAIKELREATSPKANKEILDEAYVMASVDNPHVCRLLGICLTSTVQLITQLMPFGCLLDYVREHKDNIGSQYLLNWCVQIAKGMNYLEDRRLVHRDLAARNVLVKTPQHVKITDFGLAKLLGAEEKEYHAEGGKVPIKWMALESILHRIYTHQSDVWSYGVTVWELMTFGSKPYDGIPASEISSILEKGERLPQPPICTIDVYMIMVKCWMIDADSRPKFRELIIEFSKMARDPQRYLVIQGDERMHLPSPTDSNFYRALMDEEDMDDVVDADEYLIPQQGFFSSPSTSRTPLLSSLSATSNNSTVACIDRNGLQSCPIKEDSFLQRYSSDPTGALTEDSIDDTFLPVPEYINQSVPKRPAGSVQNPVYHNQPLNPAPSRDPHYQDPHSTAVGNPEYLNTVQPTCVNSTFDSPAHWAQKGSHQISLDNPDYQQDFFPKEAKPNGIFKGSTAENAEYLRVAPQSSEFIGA

Structure (SMILES)	IC50
COc1cc(C)c(C=C2C(=O)Nc3ccc(Cl)cc32)cc1C(C)C [Example 9, 5-Chloro-3-(5-isopropyl-4-methoxy-2-methylbenzylidene)-1,3-dihydroindol-2-one]	> 100 µM
CCOC(=O)c1c(C)[nH]c(/C=C2\C(=O)Nc3cc(-c4ccccc4OC)ccc32)c1CCC(=O)O [Example 110, 4-(2-Carboxyethyl)-5-[6-(2-methoxyphenyl)-2-oxo-1,2-dihydro-indol-3-ylidenemethyl]-2-methyl-1H-pyrrol-3-yl-carboxylic acid ethyl ester]	> 100 µM
Cc1cccc2c1/C(=C/c1ccc3c(c1)CCO3)C(=O)N2 [Example 69, 3-(2,3-Dihydrobenzofuran-5-ylmethylene)-4-methyl-1,3-dihydroindol-2-one]	> 100 µM
COc1ccccc1-c1ccc2c(c1)NC(=O)/C2=C\c1[nH]c(C)cc1CCC(=O)O [Example 109, 3-{2-[6-(2-Methoxyphenyl)-2-oxo-1,2-dihydroindol-3-ylidenemethyl]-5-methyl-1H-pyrrol-3-yl}-propionic acid]	> 100 µM
COc1ccc(/C=C2\C(=O)Nc3cccc(C)c32)cc1C1CCCC1 [Example 48, 3-(3-Cyclopentyl-4-methoxybenzylidene)-4-methyl-1,3-dihydroindol-2-one]	> 100 µM
CC(=O)Nc1ccc2c(c1)NC(=O)/C2=C\c1ccc2c(c1)CCC(C)(C)O2 [Example 33, N-[3-(2,2-Dimethylchroman-6-ylmethylene)-2-oxo-2,3-dihydro-1H-indol-6-yl]-acetamide]	> 100 µM
COc1c(C(C)C)cc(/C=C2/C(=O)Nc3ccc(C)cc32)cc1C(C)C [Example 19, 3-(3,5-Diisopropyl-4-methoxybenzylidene)-5-methyl-1,3-dihydroindol-2-one]	> 100 µM

Second part, the compound after the results:

IC50	Structure (SMILES)
> 100 µM	COc1ccc(/C=C2/C(=O)Nc3ccc(Br)cc32)cc1-c1ccccc1 [Example 13, 5-Bromo-3-(6-methoxybiphenyl-3-ylmethylene)-1,3-dihydroindol-2-one]
> 100 µM	COc1ccc(/C=C2/C(=O)Nc3ccccc32)cc1-c1ccsc1 [Example 35, 3-(4-Methoxy-3-thiophen-3-ylbenzylidene)-1,3-dihydroindol-2-one]
> 100 µM	COc1ccc(/C=C2\C(=O)Nc3cccc(C)c32)cc1C(C)C [Example 38, 3-(3-Isopropyl-4-methoxybenzylidene)-4-methyl-1,3-dihydroindol-2-one]
> 100 µM	COc1ccc(/C=C2/C(=O)Nc3ccccc32)cc1C1CCCCC1 [Example 12, 3-(3-Cyclohexyl-4-methoxybenzylidene)-1,3-dihydroindol-2-one]
> 100 µM	COc1ccc(/C=C2/C(=O)Nc3ccc(CCN4CCOCC4)cc32)cc1-c1ccsc1 [Example 26, 3-(4-Methoxy-3-thiophen-3-ylbenzylidene)-5-(2-morpholin-4-yl-ethyl)-1,3-dihydroindol-2-one]
> 100 µM	COc1c(C)cc(/C=C2/C(=O)Nc3ccc(Cl)cc32)cc1C [Example 21, 5-Chloro-3-(4-methoxy-3,5-dimethylbenzylidene)-1,3-dihydroindol-2-one]
> 100 µM	CC(=O)Nc1ccc2c(c1)NC(=O)/C2=C/c1ccc(OCCN2CCOCC2)c(C(C)(C)C)c1 [Example 55, N-{3-[3-tert-Butyl-4-(2-morpholin-4-ylethoxy)-benzylidene]-2-oxo-2,3-dihydro-1H-indol-6-yl}-acetamide]
> 100 µM	COc1cc(C)c(C=C2C(=O)Nc3cc(NC(C)=O)ccc32)cc1C(C)C [Example 27, N-[3-(5-Isopropyl-4-methoxy-2-methyl-benzylidene)-2-oxo-2,3-dihydro-1H-indol-6-yl]-acetamide]
> 100 µM	COc1ccc(/C=C2/C(=O)Nc3ccc(F)cc32)cc1C1CCCCC1 [Example 43, 3-(3-Cyclohexyl-4-methoxybenzylidene)-5-fluoro-1,3-dihydroindol-2-one]
> 100 µM	CCc1ccc2c(c1)/C(=C\c1cc(C(C)C)c(OC)c(C(C)C)c1)C(=O)N2 [Example 28, 3-(3,5-Diisopropyl-4-methoxbenzylidene)-5-ethyl-1,3-dihydroindol-2-one]
